# Literature values in patent publication US10646464B2, “Methods for treating cancer” (Boston Biomedical, Inc., priority 2017, dated 2020).
# Key:
# [1] = system: patients with advanced, previously treated pancreatic adenocarcinoma; conditions: weekly paclitaxel alone, previously reported
# Stat3 pathway = conditions: read-out: inhibits Stat3 pathway activity, cellular IC50
SMILES,median overall survival (mOS) [1],IC50 (Stat3 pathway) [nM]
CC(=O)O[C@H]1C(=O)[C@@]2(C)[C@H]([C@H](OC(=O)c3ccccc3)[C@]3(O)C[C@H](OC(=O)[C@H](O)[C@@H](NC(=O)c4ccccc4)c4ccccc4)C(C)=C1C3(C)C)[C@]1(OC(C)=O)CO[C@@H]1C[C@@H]2O [paclitaxel],about 17.5 weeks,
"CC(=O)c1cc2c(o1)C(=O)c1ccccc1C2=O [2-acetylnaphtho[2,3-b]furan-4,9-dione]",,~250
